The values that follow come from US20150057261A1, “AZETIDINE DERIVATIVES AS SPHINGOSINE-1 PHOSPHATE RECEPTORS MODULATORS” (Allergan, Inc., priority 2013, published 2015).

In the assay the target is T1, human S1P1 receptor (Homo sapiens, UniProt P21453).
T1 construct: expressed in transfected cells; membranes used
Put plainly: GTP γ35S binding assay for S1P1 activity. Type of assay: biochemical. As to conditions: membranes of cells stably expressing the S1P1 receptor. The procedure:
Compounds were synthesized and tested for S1P1 activity using the GTP γ^35S binding assay. These compounds may be assessed for their ability to activate or block activation of the human S1P1 receptor in cells stably expressing the S1P1 receptor.
GTP γ^35S binding was measured in the medium containing (mM) HEPES 25, pH 7.4, MgCl2 10, NaCl 100, dithiothreitol 0.5, digitonin 0.003%, 0.2 nM GTP γ^35S, and 5 μg membrane protein in a volume of 150 μl. Test compounds were included in the concentration range from 0.08 to 5,000 nM unless indicated otherwise. Membranes were incubated with 100 μM 5′-adenylylimidodiphosphate for 30 min, and subsequently with 10 μM GDP for 10 min on ice. Drug solutions and membrane were mixed, and then reactions were initiated by adding GTP γ^35S and continued for 30 min at 25° C. Reaction mixtures were filtered over Whatman GF/B filters under vacuum, and washed three times with 3 mL of ice-cold buffer (HEPES 25, pH7.4, MgCl2 10 and NaCl 100). Filters were dried and mixed with scintillant, and counted for ^35S activity using a β-counter. Agonist-induced GTP γ^35S binding was obtained by subtracting that in the absence of agonist. Binding data were analyzed using a non-linear regression method. In case of antagonist assay, the reaction mixture contained 10 nM […] in the presence of test antagonist at concentrations ranging from 0.08 to 5000 nM.
For orientation: Binding of GTPγS marks nucleotide exchange on a G protein.

For orientation: EC50 means the concentration giving half of the maximal effect. High values mean a less potent agent, low ones a more potent agent.

T1 sequence (P21453 whole entry): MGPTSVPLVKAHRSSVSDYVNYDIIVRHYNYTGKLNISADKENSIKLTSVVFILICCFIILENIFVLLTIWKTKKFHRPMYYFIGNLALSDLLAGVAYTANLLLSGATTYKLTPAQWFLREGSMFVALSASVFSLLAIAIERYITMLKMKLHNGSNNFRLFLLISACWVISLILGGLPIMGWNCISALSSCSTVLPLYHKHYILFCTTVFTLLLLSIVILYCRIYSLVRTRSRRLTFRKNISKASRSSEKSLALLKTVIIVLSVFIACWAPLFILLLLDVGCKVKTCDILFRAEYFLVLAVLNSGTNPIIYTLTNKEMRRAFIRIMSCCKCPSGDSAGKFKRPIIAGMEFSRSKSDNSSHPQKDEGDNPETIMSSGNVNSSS

Take `Cc1ccc(CC(CCCCc2ccc(CN3CC(C(=O)O)C3)cc2)c2cccc(Cl)c2)cc1C` (stereo not drawn) [Compound 1, 1-{4-[5-(3-Chlorophenyl)-6-(3,4-dimethylphenyl)hexyl]benzyl}azetidine-3-carboxylic acid]: a half-maximal response (EC50) required 64.5 nM.

Compound `Cc1ccc(CC(CCCc2ccc(CN3CC(C(=O)O)C3)cc2)c2cccc(Cl)c2)cc1C` (stereo not drawn) [Compound 2, 1-{4-[4-(3-Chlorophenyl)-5-(3,4-dimethylphenyl)pentyl]benzyl}azetidine-3-carboxylic acid] came in with an EC50 of 17.1 nM.

In turn, `Cc1ccc(CC(CCCCc2ccc(CN3CC(C(=O)O)C3)cc2)c2cc(F)cc(F)c2)cc1C` (stereo not drawn) [Compound 3, 1-{4-[5-(3,5-Difluorophenyl)-6-(3,4-dimethylphenyl)hexyl]benzyl}azetidine-3-carboxylic acid] returned an EC50 of 7.33 nM.
